These results are taken from PubChem BioAssay AID330 (DTP/NCI, 2004).

In this assay the test system is P388 leukemia ip, CD2F1 mice, survival T/C. As to the kind of experiment: NCI In Vivo Anticancer Drug Screen. Data for tumor model P388 Leukemia (intraperitoneal) in CD2F1 (CDF1) mice. As to conditions: endpoint: median survival time, higher = longer survival. A digest of the protocol:
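Mice carrying the transplanted tumor received test compound or vehicle. Survival was recorded in each group, and the value is the treated-group measurement divided by that of the vehicle-treated control group.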

Setting [1] is: dose: 25.0 mg/kg/injection, schedule: Q01DX009 (ip), vehicle: saline with Tween-80.
[2] abbreviates: dose: 50.0 mg/kg/injection, schedule: Q01DX009 (ip), vehicle: saline with Tween-80.
Setting [3] is: dose: 100.0 mg/kg/injection, schedule: Q01DX009 (ip), vehicle: saline with Tween-80.
Where [4] appears, read: dose: 200.0 mg/kg/injection, schedule: Q01DX009 (ip), vehicle: saline with Tween-80.
Setting [5] is: dose: 100.0 mg/kg/injection, schedule: Q01DX009 (ip), vehicle: Klucel (hydroxypropylcellulose) (HPC).
[6] abbreviates: dose: 200.0 mg/kg/injection, schedule: Q01DX009 (ip), vehicle: Klucel (hydroxypropylcellulose) (HPC).
The mark [7] stands for this setting: dose: 50.0 mg/kg/injection, schedule: Q01DX005 (ip), vehicle: saline with Tween-80.
Setting [8] is: dose: 100.0 mg/kg/injection, schedule: Q01DX005 (ip), vehicle: saline with Tween-80.
The mark [9] stands for this setting: dose: 200.0 mg/kg/injection, schedule: Q01DX005 (ip), vehicle: saline with Tween-80.
Setting [10] is: dose: 12.5 mg/kg/injection, schedule: Q01DX009 (ip), vehicle: saline with Tween-80.
[11] abbreviates: dose: 50.0 mg/kg/injection, schedule: Q01DX009 (ip), vehicle: saline.
The mark [12] stands for this setting: dose: 100.0 mg/kg/injection, schedule: Q01DX009 (ip), vehicle: saline.
The mark [13] stands for this setting: dose: 200.0 mg/kg/injection, schedule: Q01DX009 (ip), vehicle: saline.
Where [14] appears, read: dose: 60.0 mg/kg/injection, schedule: Q01DX005 (ip), vehicle: Klucel (hydroxypropylcellulose) (HPC).
The mark [15] stands for this setting: dose: 120.0 mg/kg/injection, schedule: Q01DX005 (ip), vehicle: Klucel (hydroxypropylcellulose) (HPC).

Molecules are shown by their SMILES. Several values for one entry are separate records, joined by “and”; a condition that tells them apart may be missing. Identical values can stand only once. Toxic doses and inconclusive results are not listed.

For `CCS`, the T/C reads like this: under setting [1], 86 % of control; under setting [2], 91 % of control; under setting [3], 92 % of control; under setting [4], 88 % of control.
As for `O=C1OCCN1CCCl`, the T/C runs as follows: under setting [5], 118 % of control; under setting [6], 121 % of control; (dose: 400.0 mg/kg/injection, schedule: Q01DX009 (ip), vehicle: Klucel (hydroxypropylcellulose) (HPC)) 121 % of control.
As to `N#Cc1c(-c2ccc(Cl)cc2)c(-c2ccc(Cl)cc2)nn(CCOC(=O)CN)c1=O`, the T/C is, setting by setting: (dose: 3.13 mg/kg/injection, schedule: Q01DX005 (ip), vehicle: distilled water + Tween-80) 99 % of control and 100 % of control; (dose: 6.25 mg/kg/injection, schedule: Q01DX005 (ip), vehicle: distilled water + Tween-80) 100 % of control and 103 % of control; (dose: 12.5 mg/kg/injection, schedule: Q01DX005 (ip), vehicle: distilled water + Tween-80) 105 % of control and 115 % of control and 97 % of control; (dose: 12.5 mg/kg/injection, schedule: Q04DX002 (ip), vehicle: distilled water + Tween-80) 103 % of control; (dose: 25.0 mg/kg/injection, schedule: Q01DX005 (ip), vehicle: distilled water + Tween-80) 108 % of control and 120 % of control (2×); (dose: 25.0 mg/kg/injection, schedule: Q04DX002 (ip), vehicle: distilled water + Tween-80) 111 % of control and 112 % of control. Besides, the T/C is 155 % of control (dose: 50.0 mg/kg/injection, schedule: Q01DX005 (ip), vehicle: distilled water + Tween-80) and 116 % of control (dose: 50.0 mg/kg/injection, schedule: Q01DX005 (ip), vehicle: saline).
On to `O=S(=O)(Nc1cccc(NS(=O)(=O)c2ccccc2)n1)c1ccccc1`, for which the T/C (dose: 50.0 mg/kg/injection, schedule: Q01DX001 (ip), vehicle: saline with Tween-80) is 91 % of control; the T/C (dose: 100.0 mg/kg/injection, schedule: Q01DX001 (ip), vehicle: saline with Tween-80) is 91 % of control; the T/C (dose: 200.0 mg/kg/injection, schedule: Q01DX001 (ip), vehicle: saline with Tween-80) is 91 % of control.
For `CC(NC(=O)OCc1ccccc1)C(=O)Oc1cc(Cl)c(Cl)cc1Cl` (stereo not drawn), the T/C runs as follows: under setting [2], 109 % of control; under setting [3], 104 % of control; under setting [4], 107 % of control.
As for `COc1ccc(/C(C#N)=C/c2cccs2)cc1`, the T/C was 111 % of control (dose: 50.0 mg/kg/injection, schedule: Q01DX009 (ip), vehicle: Klucel (hydroxypropylcellulose) (HPC)); 102 % of control under setting [5]; 104 % of control under setting [6].
As to `CCC(c1ccccc1)c1cc2c(cc1OC(C)=O)OCO2` (stereo not drawn), the T/C is, setting by setting: under setting [7], 104 % of control; under setting [8], 107 % of control; under setting [9], 102 % of control.
The matching figures for `CSCCC(NC(=O)C(Cc1ccccc1)NC(=O)CNC(=O)CNC(=O)C(N)Cc1ccc(O)cc1)C(=O)O` (stereo not drawn): 101 % of control, 92 % of control and 92 % of control.
As for `Nc1cccc(CCCCc2ccc(Cl)c(S(=O)(=O)F)c2)c1`, the T/C runs as follows: (dose: 50.0 mg/kg/injection, schedule: Q01DX009 (ip), vehicle: saline sonified) 86 % of control; (dose: 100.0 mg/kg/injection, schedule: Q01DX009 (ip), vehicle: saline sonified) 86 % of control; (dose: 200.0 mg/kg/injection, schedule: Q01DX009 (ip), vehicle: saline sonified) 95 % of control.
In the case of `O=C(NC1CCCCC1)ON1C(=O)C2C3C=CC(C3)C2C1=O` (stereo not drawn), the T/C is 101 % of control and 98 % of control (dose: 3.12 mg/kg/injection, schedule: Q01DX009 (ip), vehicle: saline with Tween-80); 106 % of control and 110 % of control and 113 % of control (dose: 6.25 mg/kg/injection, schedule: Q01DX009 (ip), vehicle: saline with Tween-80); 106 % of control and 110 % of control under setting [10]; 113 % of control and 117 % of control and 98 % of control under setting [1]; 119 % of control under setting [2].
As for `Cc1cc(C)c(COCc2cc(C)c(C)cc2C)cc1C`, the T/C reads like this: (dose: 25.0 mg/kg/injection, schedule: Q01DX009 (ip), vehicle: water) 86 % of control; (dose: 100.0 mg/kg/injection, schedule: Q01DX009 (ip), vehicle: water) 90 % of control; (dose: 200.0 mg/kg/injection, schedule: Q01DX009 (ip), vehicle: water) 106 % of control; (dose: 400.0 mg/kg/injection, schedule: Q01DX009 (ip), vehicle: water) 104 % of control.
On to `CN(C)C(=C[N+](=O)[O-])N(C)C`, for which the T/C runs as follows: under setting [11], 101 % of control; under setting [12], 103 % of control; under setting [13], 104 % of control.
As to `CCOC(=O)c1cnc(-c2ccccc2)n(-c2ccccc2)c1=O`, the T/C was 105 % of control (dose: 50.0 mg/kg/injection, schedule: Q01DX005 (ip), vehicle: Klucel (hydroxypropylcellulose) (HPC)) and 107 % of control (dose: 100.0 mg/kg/injection, schedule: Q01DX005 (ip), vehicle: Klucel (hydroxypropylcellulose) (HPC)).
As for `C(=N/n1nnc(-c2ccccc2)n1)/c1ccccc1`, the T/C under setting [7] was 101 % of control and the T/C under setting [8] was 92 % of control.
With `BrCCc1ccc2ccccc2c1Br`, the T/C reads like this: (dose: 50.0 mg/kg/injection, schedule: Q01DX005 (ip), vehicle: distilled water + Tween-80 + alcohol) 111 % of control; (dose: 100.0 mg/kg/injection, schedule: Q01DX005 (ip), vehicle: distilled water + Tween-80 + alcohol) 109 % of control; (dose: 200.0 mg/kg/injection, schedule: Q01DX005 (ip), vehicle: distilled water + Tween-80 + alcohol) 105 % of control.
In the case of `O=c1cc(CSc2ncnc3nc[nH]c23)[nH]c(=O)[nH]1`, the T/C runs as follows: under setting [11], 106 % of control; under setting [12], 111 % of control; under setting [13], 108 % of control.
Turning to `Cn1nc2c(c(Cl)c1=O)Nc1ccccc1O2`, the T/C is 108 % of control (dose: 60.0 mg/kg/injection, schedule: Q01DX005 (ip), vehicle: saline with Tween-80); 104 % of control (dose: 120.0 mg/kg/injection, schedule: Q01DX005 (ip), vehicle: saline with Tween-80); 96 % of control (dose: 240.0 mg/kg/injection, schedule: Q01DX005 (ip), vehicle: saline with Tween-80).
For the compound `O=C(O)C1CSC(c2ccccc2)N1` (stereo not drawn), the T/C under setting [10] was 100 % of control and 101 % of control; the T/C under setting [1] was 102 % of control and 103 % of control; the T/C under setting [2] is 100 % of control; the T/C under setting [3] was 100 % of control.
In the case of `Clc1cc(=Nc2ccccc2)n2ccccc2n1`, the T/C is, setting by setting: under setting [14], 96 % of control; under setting [15], 99 % of control; (dose: 240.0 mg/kg/injection, schedule: Q01DX005 (ip), vehicle: Klucel (hydroxypropylcellulose) (HPC)) 97 % of control.
With `CNC(=S)SC1=NS(=O)(=O)c2ccccc2N1`, the T/C was 111 % of control (dose: 30.0 mg/kg/injection, schedule: Q01DX005 (ip), vehicle: Klucel (hydroxypropylcellulose) (HPC)); 99 % of control and 110 % of control under setting [14]; 116 % of control and 117 % of control under setting [15].
As for `COc1cccc2c(NCCCCCCCCNc3c4ccc([N+](=O)[O-])cc4nc4c(OC)cccc34)c3ccc([N+](=O)[O-])cc3nc12`, the T/C is 157 % of control (dose: 2.5 mg/kg/injection, schedule: Q01DX009 (ip), vehicle: other); 152 % of control (dose: 5.0 mg/kg/injection, schedule: Q01DX009 (ip), vehicle: other); 158 % of control and 172 % of control (dose: 10.0 mg/kg/injection, schedule: Q01DX009 (ip), vehicle: other); 170 % of control (dose: 20.0 mg/kg/injection, schedule: Q01DX009 (ip), vehicle: other); 166 % of control (dose: 40.0 mg/kg/injection, schedule: Q01DX009 (ip), vehicle: other).
